Here are results for 2 substances from patent US20240352145A1, “EFFICACY OF ANTI-TROP-2-SN-38 ANTIBODY DRUG CONJUGATES FOR THERAPY OF TUMORS RELAPSED/REFRACTORY TO CHECKPOINT INHIBITORS” (Immunomedics, Inc., priority 2016, published 2024).

Series [1] relates to BxPC-3. The experiment in a line: ADCC activity of hRS7-ADC conjugates. To be noted: 33.3 nM; PBMC effector to target ratio 100:1. The class given is cell-based, human. From the text: PBMCs were purified from blood purchased from the Blood Center of New Jersey. A Trop-2-positive human pancreatic adenocarcinoma cell line (BxPC-3) was used as the target cell line with an effector to target ratio of 100:1.

The subject of series [2] is p21^Waf1/Cip1 and p53. The experiment in a line: Signaling events (p21Waf1/Cip1, p53) in BxPC-3. The class given is cell-based, human.
From the text: (§1) Our initial studies examined the expression of 2 proteins involved in early signaling events (p21^Waf1/Cip1 and p53) and 1 late apoptotic event [cleavage of poly-ADP-ribose polymerase (PARP)] in vitro (not shown).
Series [3] deals with p21^Waf1/Cip1 and p53. The experiment in a line: Signaling events (p21Waf1/Cip1, p53) in Calu-3. The format is cell-based, human.
From the text: as §1
Series [4] concerns COLO 205 tumors. The series is described as follows: COLO 205 xenograft therapy. The class given is in vivo.
Method: (§2) NCr female athymic nude (nu/nu) mice, 4 to 8 weeks old, and male Swiss-Webster mice, 10 weeks old, were purchased from Taconic Farms. […] Tumor volume (TV) was determined by measurements in 2 dimensions using calipers, with volumes defined as: L×w^2/2, where L is the longest dimension of the tumor and w is the shortest. […] This dosing frequency reflected a consideration of the conjugate's serum half-life in vitro, to allow a more continuous exposure to the ADC.
(§3) Statistics—Growth curves are shown as percent change in initial TV over time. Statistical analysis of tumor growth was based on area under the curve (AUC). Profiles of individual tumor growth were obtained through linear-curve modeling. An f-test was employed to determine equality of variance between groups before statistical analysis of growth curves. A 2-tailed t-test was used to assess statistical significance between the various treatment groups and controls, except for the saline control, where a 1-tailed t-test was used (significance at P≤0.05). Statistical comparisons of AUC were performed only up to the time that the first animal within a group was euthanized due to progression.
The subject of series [5] is SK-MES-1 human squamous cell lung tumors. The experiment in a line: SK-MES-1 xenograft therapy. Particulars: for tumor volume (TV): 0.4 mg/kg, 28 days. The class given is in vivo.
Method: as §2, §3
Series [6] deals with T1, rhTrop-2/TACSTD2 (Homo sapiens, UniProt P09758).
T1 construct: purchased Sino Biological, Inc
T1 sequence (P09758 27-323): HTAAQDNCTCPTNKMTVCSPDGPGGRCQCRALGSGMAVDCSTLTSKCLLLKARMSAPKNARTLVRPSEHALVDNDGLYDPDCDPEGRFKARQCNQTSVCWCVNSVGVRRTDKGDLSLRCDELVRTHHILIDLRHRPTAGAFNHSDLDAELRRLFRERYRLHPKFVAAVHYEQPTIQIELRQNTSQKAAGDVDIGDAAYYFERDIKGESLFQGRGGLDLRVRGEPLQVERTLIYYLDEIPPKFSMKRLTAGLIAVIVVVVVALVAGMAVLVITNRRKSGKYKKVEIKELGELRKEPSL
The series is described as follows: Surface plasmon resonance (BIACORE), Trop-2. The class given is binding. Particulars: for Kd: low-density Trop-2 chip, three independent runs, read-out: binding affinity (KD). From the text: Surface Plasmon Resonance Binding (BIACORE)—Briefly, rhTrop-2/TACSTD2 (Sino Biological, Inc.) or recombinant human neonatal receptor (FcRn), produced as described (Wang et al., 2011, Drug Metab Dispos 39:1469-77), was immobilized with an amine coupling kit (GE Healthcare; Cat. No. BR-1000-50) on a CM5 sensor chip (GE Healthcare; Cat. #BR-1000-12) following manufacturer's instructions for a low-density chip. […] Each set would make up a separate run on the BIACORE (BIACORE-X; Biacore Inc., Piscataway, NJ) and data were analyzed using BIAevaluation Software (Biacore Inc., v4.1). Analysis was performed with a 1:1 (Langmuir) Binding Model and Fit, using all five concentration points for each sample run to determine the best fit (lowest χ^2 value). The KDvalue was calculated using the formula KD=kd1/ka1, where kd1 is the dissociation rate-constant and ka1 is the association-rate constant.
For orientation: In SPR one partner is held on a chip, and binding of the other changes the refractive index at the surface.

Series [7] concerns MDA-MB-468. The series is described as follows: ADCC LDH-release, MDA-MB-468. The class given is cell-based, human. To be noted: for specific lysis (ADCC): MDA-MB-468, 33.3 nM, E:T 50:1, 4 h. The procedure:
The next day, peripheral blood mononuclear effector cells (PBMCs) were freshly isolated from a donor and added to assigned wells on the reaction plate at an E:T ratio of 50:1. Acquisition of human PBMCs was done under the approval of the New England Institutional Review Board (Newton, MA). […] One set of wells received ADCC assay medium alone for background control and another set of wells received cells alone plus TritonX100 for maximum cells lysis control. The plate was incubated for 4 h at 37° C. After 4 h, target cell lysis was assessed by a homogenous fluorometric LDH release assay (Cyto Tox-One Homogenous Membrane Integrity Assay; Promega, Cat. G7891).
Data were analyzed by Microsoft Excel. Percent specific lysis was calculated as follows:
where: • Experimental: effector+target cells+antibody • Effector+Target Control: effector+target cells • Max. Lysis: target cells+Triton-X100 • Target Control: target cells only

Series [8] is described as follows: CDC activity. The class given is cell-based.
For series [9], the system named is BxPC-3. The experiment in a line: dsDNA breaks, γH2AX induction in BxPC-3. The class given is cell-based, human. To be noted: for Mean Fluorescence Intensity, γH2AX: untreated 2516 ± 191. How it is done:
Assessment of Double-Stranded DNA Breaks In Vitro—For drug activity testing, BxPC-3 cells were seeded in 6-well plates at 5×10^5 cells/well and held at 37° C. overnight. […] The following morning, cells were trypsinized briefly, spun down, stained with Fixable Viability Stain 450 (BD Biosciences, San Jose, CA), washed with 1% BSA-PBS, and then fixed in 4% formalin for 15 min, washed again and permeabilized in 0.15% Triton-X100 in PBS for another 15 min. After washing twice with 1% BSA-PBS, cells were incubated with mouse anti-γH2AX-AF488 (EMD Millipore Corporation, Temecula, CA) for 45 min at 4° C. The signal intensity of γH2AX was measured by flow cytometry using a BD FACSCanto (BD Biosciences, San Jose, CA).

For series [10] the following is noted: mouse, in vivo. From the text:
Pharmacokinetics—Naive female NCr nude (nu/nu) mice, 8-10 weeks old, were purchased from Taconic Farms (Germantown, NY). […] ELISA was utilized to determine serum concentrations of total hRS7 IgG by competing for the binding to an anti-hRS7 IgG idiotype antibody with a horseradish peroxidase conjugate of hRS7. […] Pharmacokinetic (PK) parameters were computed by noncompartmental analysis using Phoenix WinNonlin software (version 6.3; Pharsight Corp., Mountainview, CA).

In series [11] the target is T2, Trop-2 (Homo sapiens, UniProt P09758).
T2 sequence (P09758 27-323): T1 sequence (P09758 27-323)
The experiment in a line: In vitro cell binding, multiple cell lines. Details: endogenous in cells; host or cells: human cancer cell lines (ATCC). The procedure:
In Vitro Cell Binding—LumiGLO Chemiluminescent Substrate System (KPL, Gaithersberg, MD) was used to detect antibody binding to cells. Briefly, cells were plated into a 96 black-well, flat-clear-bottom plate overnight. Antibodies were serially diluted 1:2 and added in triplicate, yielding a concentration range from 0.03 to 66.7 nM. After incubating for 1 h at 4° C., the media was removed and the cells washed with fresh cold media followed by the addition of a 1:20,000 dilution of goat-antihuman horseradish peroxidase-conjugated secondary antibody (Jackson Immunoresearch, West Grove, PA) for 1 h at 4° C. The plates were again washed before the addition of the LumiGLO reagent. Plates were read for luminescence using an Envision plate reader (Perkin Elmer, Boston MA). Data were analyzed by non-linear regression to determine the equilibrium dissociation constant (KD). Statistical comparisons of KD-values were made with Prism GraphPad Software (v4.03) (Advanced Graphics Software, Inc.; Encinitas, CA) using an F-Test on the best-fit curves for the data. Significance was set at P<0.05.

Usually Kd stands for the concentration at which binding is half-saturated. Turning to IMMU-132, in [1], the “specific lysis (ADCC)” value was “no difference between hRS7-NEM and sacituzumab govitecan”. In addition, the “exposure time at which p53 upregulation is evident” value (“exposure time” for short) in series [2] is no more than 24 h. In addition, the “exposure time” value in series [3] is no more than 24 h. Also, the “tumor growth vs untreated and hA20-CL2A-SN-38” value in series [4] (0.4 mg/kg SN-38 twice weekly x 4 weeks) is “significantly inhibited tumor growth”. Further, the “tumor volume (TV)” value in series [5] is given as 0.36±0.25 cm^3. In addition, in series [5] (in all murine studies), the “tolerability, body weight loss” value was “well tolerated in terms of body weight loss”. Also, the “improvement in KD vs naked hRS7” value in series [6] (BIACORE) was 2 fold. Also, in series [6], the dissociation constant (Kd) was found to be 0.26 ± 0.14 nM. Moreover, the “specific lysis (ADCC)” value in series [7] is given as 8.6±2.6%. In series [7] (three different cell lines), the “loss of effector function (ADCC)” value is given as 60-70%. Moreover, the CDC activity entry in series [8] is listed as “no CDC activity”. Moreover, the “induction of γH2AX vs non-targeting control ADC” value in series [9] (BxPC-3, 30 min exposure) was “greater than two-fold induction”. In addition, the “Mean Fluorescence Intensity, γH2AX” value in series [9] (BxPC-3, 20 μg/ml for 30 min) is given as 5349 ± 234. For the same substance, in [10], the “MRT of carrier hRS7 antibody” value is recorded as roughly 300 h. For the same substance, in series [10] (iv, 200 ug), the “alpha half-life of hRS7 IgG” value is listed as “approximately 3 h”, the “beta half-life of hRS7 IgG” value is on record as roughly 200 h and the “half-life of intact conjugate” value amounted to 11 h. Further, the KD result in series [11] is recorded as “sub-nanomolar range”.

On to hRS7 IgG, for which the “specific lysis (ADCC)” value in [1] is listed as 8.5%; in [7], 29.8±2.6%. For the same substance, the “exposure time” value in series [2] and in series [3] was 48 h throughout. For the same substance, the “tumor volume (TV)” value in series [4] (0.4 mg/kg, q4dx8, 28-day treatment period) turned out to be 1.77±0.93 cm^3; in [5] it was 1.30±1.08 cm^3. Further, in series [6], the Kd came to 0.51 ± 0.04 nM. Moreover, in series [8], the CDC activity result is “no CDC activity”. In addition, the “Percent Positive, γH2AX” value in [9] (BxPC-3, 20 μg/ml for 30 min, untreated 18.8 ± 6.3) worked out at 13.0 ± 0.6%. The “Mean Fluorescence Intensity, γH2AX” value in [9] (BxPC-3, 20 μg/ml for 30 min) is on record as 2297 ± 18. In [10] (iv, 200 ug), the “alpha half-life of hRS7 IgG” value is on record as “approximately 3 h”. For the same substance, in series [10] (iv, 200 ug), the “beta half-life of hRS7 IgG” value is listed as roughly 200 h. The KD entry in series [11] is “sub-nanomolar range”.
